The text below walks through data of patent US10716787B2, “Combinations” (ASTEX THERAPEUTICS LTD, priority 2014, dated 2020).

The structures appear in SMILES notation. A value given as a limit tells only on which side of the number the result lay.

One test concerns NCI-H1581 cells. As to the kind of experiment: Incucyte proliferation (confluence over time), prolonged treatment of NCI-H1581 cells. It is filed as cell-based. The settings on record: 1 microM each agent. As for the experimental part:
(§1) Therefore, NCI-H1581 cells were plated onto 10 cm Collagen I coated plates and placed in an incubator at 37° C., 5% CO2. […] In the case of the parental cells with or without DMSO control, when the cells reached the confluence close to 100% they were trypsinized and re-plated back on the plate. […] After about 3 weeks from the initial treatment, cells were taken out of the plate by trypsinization and passaged on new plate for further expanding. […] (test 1)
The proliferation of the cells was followed using the Incucyt machine, measuring the confluence of the cells over time.

Test [1] relates to resistant NCI-H1581 xenografts. As to the kind of experiment: In vivo study, resistant NCI-H1581 xenografts. More on the design: species or system Athymic nude mice. Particulars: compound A 25 mg/kg p.o. QD for 37 d. As for the experimental part:
Athymic nude mice were inoculated with resistant NCI-H1581 cells (10e^6 cells/200 μl with matrigel, ratio 1:1, into the inguinal region of the mice).
All mice (84) were put into groups (4) and treated from the day of the cell injection.
The mice were treated orally (po), normal volume (250 μl/25 g) once daily and this for 37 days (QD×37). Measurement of the tumor volume was done at day 0, 5, 12, 15, 20, 23, 27, 30, 33, 37.
At day 37 all animals were sacrificed.

Test [2] concerns Parental, unsorted H1581 cells. As to the kind of experiment: Incucyte live cell imaging proliferation, parental unsorted H1581 cells. It is filed as cell-based. Also on record: dose or concentration left out as unconfirmed. Particulars: four days. As for the experimental part:
Inhibition of growth of H1581^MET(+) cells by combination of FGFR and MET inhibitors. Parental, unsorted H1581 cells, and sorted H1581^Met(+) cells, subpopulation of H1581 cells that have high Met expression, were plated at 75000 cells per well in 24 well plate. […] Images were acquired every two hours. Proliferation of cells was presented as the mean of percentage of confluence±SD (n=2).

For test [3], the system named is most sensitive cancer cell lines. As to the kind of experiment: Alamar blue cell based proliferation assay, most sensitive cancer cell lines. As for the experimental part: (§2) Cells were seeded in 180 μl of medium at optimized cell densities in black 96 well plates with clear flat bottom. The outer wells were filled with 180 μl of medium. Cells were incubated for 24 hours at 37° C. and 5% CO2.
(§3) Next day compound dilutions were prepared in a 96 well plate with round bottom (Corning #3365). A 50× dilution of the compound was prepared in medium, 4 μl of compound stock in 196 μl of medium in a 96 well plate (Corning #3585).
(§4) Compound/medium plates were placed on a shaker for 10 minutes and then 20 μl of compound in medium was added to the cells (10× dilution). Cells were incubated at 37° C. and 5% CO2 for 4 days until alamarBlue® readout.
(§5) After 4 days of incubation with compound: Add 40 μl of alamarBlue® ready to use mix to each well. Incubate plates at 37° C. and 5% CO2. Measure plates after 4 or 6 hours of incubation (depends on cell line). Shake plates and measure RFU at ex.: 544 nm and em.: 590 nm
(§6) The alamarBlue® Assay incorporates a fluorometric/colorimetric growth indicator based on detection of metabolic activity. Specifically, the system incorporates an oxidation-reduction (REDOX) indicator that both fluoresces and changes color in response to chemical reduction of growth medium resulting from cell growth.
A general note: Resazurin is reduced to fluorescent resorufin, in cell work by metabolically active cells.

The next test has as its system Met oncogene. The test can be described thus: Microarray gene expression profiling of resistant versus parental NCI-H1581 cells. The class given is cell-based. The settings on record: 1 microM, 1 day, 1 week and 2 weeks. How it is done: as §1
In the next test the test system is Met protein. The test can be described thus: Western blotting of Met phosphorylation in resistant NCI-H1581 cells. The class given is cell-based. Particulars: 300 nM, 30 minutes. As for the experimental part:
FIG. 1: Western blotting of protein lysates derived from parental and resistant NCI-H1581 cells treated without (−) or with (+) Met inhibitor, 300 nM compound C, for 30 minutes.
(§7) Therefore the parental and resistant cells were profiled on phosphoRTK (receptor tyrosine kinase) arrays, and also for Met total protein expression and phosphorylation. The sensitivity of the cells to selected Met inhibitors (compound C and D) in the Alamar blue proliferation assay was also tested. […] Parental NCI-H1581 cells had very low detectable levels of Met protein, and no signal for Met protein phosphorylation (see FIG. 1).
Background: In western blotting, separated proteins are transferred to a membrane and probed.

The subject of the next test is parental NCI-H1581 cells. The test can be described thus: Alamar blue proliferation assay, parental NCI-H1581 cells. The class given is cell-based. The settings on record: for IC50: 4 days incubation. How it is done:
as §1
Therefore the parental and resistant cells were profiled on phosphoRTK (receptor tyrosine kinase) arrays, and also for Met total protein expression and phosphorylation. The sensitivity of the cells to selected Met inhibitors (compound C and D) in the Alamar blue proliferation assay was also tested.
as §2, §3, §4, §5, §6

Test [4] concerns resistant NCI-H1581 cells. As to the kind of experiment: Alamar blue proliferation assay, resistant NCI-H1581 cells. The class given is cell-based. The settings on record: for IC50: Resistant cells, 4 days incubation, repeated experiments. As for the experimental part:
The insensitive cells were isolated and profiled with the aim to determine the active signaling pathways that act as drivers for their survival and/or proliferation. Therefore, NCI-H1581 cells were plated onto 10 cm Collagen I coated plates and placed in an incubator at 37° C., 5% CO2. […] In the case of the parental cells with or without DMSO control, when the cells reached the confluence close to 100% they were trypsinized and re-plated back on the plate. In the compound treated plates outgrowth of resistant clones were observed. After about 3 weeks from the initial treatment, cells were taken out of the plate by trypsinization and passaged on new plate for further expanding. […] (test 1)
as §7, §2, §3, §4, §5, §6

Setting [5] is: Homo sapiens, NCI-H1581, 96 h, Parental cells.

For `COc1cc(OC)cc(N(CCNC(C)C)c2ccc3ncc(-c4cnn(C)c4)nc3c2)c1` [compound A, N-(3,5-dimethoxyphenyl)-N′-(1-methylethyl)-N-[3-(1-methyl-1H-pyrazol-4-yl)quinoxalin-6-yl]ethane-1,2-diamine], the “emergence of resistance (outgrowth of insensitive cells)” value in the test with NCI-H1581 cells (continuous treatment) is recorded as “after about three weeks emerging outgrowth of compound insensitive cells was observed”. Moreover, in test [1], the tumor growth entry is “did not have effect on tumor growth”. Besides, in test [2], the “cell growth (confluence)” value is given as “equally inhibited”.

By IC50 is commonly meant the midpoint of a concentration-inhibition curve. As to `COc1cc(OC)c(F)c(N(Cc2ncc[nH]2)c2ccc3ncc(-c4cnn(C)c4)nc3n2)c1` [compound B, N-(2-fluoro-3,5-dimethoxyphenyl)-N-(1H-imidazol-2-ylmethyl)-3-(1-methyl-1H-pyrazol-4-yl)pyrido[2,3-b]pyrazin-6-amine], the half-inhibitory concentration (IC50) in test [3] was under 10 nM. The “Met oncogene expression (microarray)” value in the test on Met oncogene is “upregulated in a time dependent manner”.

As to `Cn1cc(-c2ccc3nnc(C(F)(F)c4ccc5ncccc5c4)n3n2)cn1` [compound C, 6-{Difluoro[6-(1-methyl-1H-pyrazol-4-yl)[1,2,4]triazolo[4,3-b]pyridazin-3-yl]methyl}quinoline], in the test with Met protein, the Met phosphorylation result is recorded as “down regulated significantly”. Further, the “proliferation of the parental NCI-H1581 cells (in words)” value with parental NCI-H1581 cells is given as “but not of the parental NCI-H1581 cells”. In the test with parental NCI-H1581 cells (setting [5]), the IC50 was over 30000 nM. Further, the “proliferation of the resistant NCI-H1581 cells (in words)” value in test [4] is given as “strongly inhibited”.

Consider `FC(F)(c1ccc2ncccc2c1)c1nnc2ccc(-c3ccncc3)nn12` [compound D, 6-[Difluoro(6-pyridin-4-yl[1,2,4]triazolo[4,3-b]pyridazin-3-yl)methyl]quinoline], for which, in the test with NCI-H1581 cells, the “proliferation (confluence of the cells over time)” value is on record as “did not impact the proliferation”. For the same compound, in the test on parental NCI-H1581 cells, the “proliferation of the parental NCI-H1581 cells (in words)” value is “but not of the parental NCI-H1581 cells”. Besides, the IC50 is over 30000 nM with parental NCI-H1581 cells (Homo sapiens, NCI-H1581, 96 h, Parental cells + DMSO); over 10000 nM in the test on parental NCI-H1581 cells (setting [5]); 341 nM in test [4] (Homo sapiens, NCI-H1581, 96 h); 444 nM in test [4]. Besides, the “proliferation of the resistant NCI-H1581 cells (in words)” value in test [4] is given as “strongly inhibited”.

Regarding `C[C@@H](Oc1cc(-c2cnn(C3CCNCC3)c2)cnc1N)c1c(Cl)ccc(F)c1Cl` [crizotinib, reference compound], the IC50 in the test on parental NCI-H1581 cells (setting [5]) stood at 6910 nM; with parental NCI-H1581 cells (Parental cells), 4950 nM; in test [4] (Homo sapiens, NCI-H1581, 96 h), 198 nM; in test [4], 165 nM.
